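1) Cells in 96-well plates. 2) Compound, 48 h, 5 concentrations. 3) Linear interpolation between surrounding doses. 4) Unreached endpoint = highest concentration. Abbreviation: GI50, concentration required for 50% inhibition of growth.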 Activity calls are given as the source filed them. Rule as the data show it: active = GI50 up to about 1.1 µM and inactive = higher.
Legend:
Test in all cases: growth of human tumour cells (NCI), 48 h
[1] = system: NCI/ADR-RES
[2] = system: SNB-75
[3] = system: SK-MEL-5
[4] = system: HOP-92
[5] = system: MOLT-4
[6] = system: BT-549
[7] = system: RPMI-8226
[8] = system: NCI-H23
[9] = system: SK-MEL-2
[10] = system: HOP-62
[11] = system: NCI-H522
[12] = system: M14
[13] = system: COLO 205
[14] = system: NCI-H226
[15] = system: DU-145
[16] = system: NCI-H460
[17] = system: Hs-578T
[18] = system: MDA-MB-231
[19] = system: TK-10
[20] = system: CCRF-CEM
[21] = system: OVCAR-5
[22] = system: ACHN
[23] = system: T47D
[24] = system: UO-31
[25] = system: EKVX
[26] = system: MDA-MB-435
[27] = system: U-251
[28] = system: SF-539
[29] = system: MCF7
[30] = system: MDA-N
[31] = system: UACC-257
[32] = system: OVCAR-3
[33] = system: A498
[34] = system: HCT-15
[35] = system: KM12
[36] = system: HL-60
[37] = system: SR
[38] = system: K562
[39] = system: CAKI-1
[40] = system: PC-3
[41] = system: SNB-19
[42] = system: SF-295
[43] = system: LOX IMVI
[44] = system: HCT-116
[45] = system: UACC-62
[46] = system: HCC 2998
[47] = system: IGROV-1
[48] = system: SN12C
[49] = system: SF-268
[50] = system: RXF 393
[51] = system: 786-0
[52] = system: SW-620
[53] = system: OVCAR-8
[54] = system: OVCAR-4
[55] = system: SK-OV-3
[56] = system: A549
[57] = system: Malme-3M
[58] = system: HT-29
[59] = system: SK-MEL-28

Q: Which results are given for c1ccc(COC2C3COC(O3)C(OCc3ccccc3)C2OCc2ccccc2)cc1 (configuration not stated)?
A: GI50 [1]: 32.1 µM (inactive); GI50 [2]: 22.8 µM (inactive); GI50 [3]: 34.4 µM (inactive); GI50 [4]: 67.1 µM (inactive); GI50 [5]: 6.75 µM (inactive); GI50 [6]: > 100 µM (inactive); GI50 [7]: 12.2 µM (inactive); GI50 [8]: 77.3 µM (inactive); GI50 [9]: 54.3 µM (inactive); GI50 [10]: 71.3 µM (inactive); GI50 [11]: 15.1 µM (inactive); GI50 [12]: 32.2 µM (inactive); GI50 [13]: 41 µM (inactive); GI50 [14]: 60.7 µM (inactive); GI50 [15]: 78.5 µM (inactive); GI50 [16]: 22 µM (inactive); GI50 [17]: 31.4 µM (inactive); GI50 [18]: > 100 µM (inactive); GI50 [19]: 70.5 µM (inactive); GI50 [20]: 11.2 µM (inactive); GI50 [21]: 69.5 µM (inactive); GI50 [22]: 27.5 µM (inactive); GI50 [23]: 22.9 µM (inactive); GI50 [24]: 56.2 µM (inactive); GI50 [25]: 38.7 µM (inactive); GI50 [26]: 18.2 µM (inactive); GI50 [27]: > 100 µM (inactive); GI50 [28]: > 100 µM (inactive); GI50 [29]: 39.1 µM (inactive); GI50 [30]: 63.7 µM (inactive); GI50 [31]: 71.1 µM (inactive); GI50 [32]: 57.8 µM (inactive); GI50 [33]: > 100 µM (inactive); GI50 [34]: 34 µM; GI50 [35]: 29.6 µM (inactive); GI50 [36]: 13.2 µM (inactive); GI50 [37]: 4.84 µM (inactive); GI50 [38]: 27.9 µM (inactive); GI50 [39]: > 100 µM (inactive); GI50 [40]: 35.2 µM (inactive); GI50 [41]: 27.3 µM (inactive); GI50 [42]: 94.4 µM (inactive); GI50 [43]: 30.6 µM (inactive); GI50 [44]: 33.9 µM (inactive); GI50 [45]: > 100 µM (inactive); GI50 [46]: 14.6 µM (inactive); GI50 [47]: 79.1 µM (inactive); GI50 [48]: 13.6 µM (inactive); GI50 [49]: > 100 µM (inactive); GI50 [50]: 45.4 µM (inactive); GI50 [51]: 64.4 µM (inactive); GI50 [52]: 40.1 µM (inactive); GI50 [53]: 60.7 µM (inactive); GI50 [54]: 49.1 µM (inactive); GI50 [55]: > 100 µM (inactive)

Q: For CNc1ccc([N+](=O)[O-])cc1C(=O)N1CCC[C@H]1CO, which GI50 [1] is on record?
A: > 100 µM (inactive)

Q: What about the GI50 [2] of the same compound?
A: > 100 µM (inactive)

Q: And the GI50 [3]?
A: > 100 µM (inactive)

Q: And the GI50 [56]?
A: > 100 µM (inactive)

Q: What about the GI50 [57] of the same compound?
A: > 100 µM (inactive)

Q: And the GI50 [4]?
A: > 100 µM (inactive)

Q: And the GI50 [5]?
A: > 100 µM (inactive)

Q: What about the GI50 [6] of the same compound?
A: > 100 µM (inactive)

Q: What about the GI50 [7] of the same compound?
A: > 100 µM (inactive)

Q: And the GI50 [8]?
A: > 100 µM (inactive)

Q: What about the GI50 [9] of the same compound?
A: > 100 µM (inactive)

Q: What about the GI50 [10] of the same compound?
A: > 100 µM (inactive)

Q: And the GI50 [11]?
A: > 100 µM (inactive)

Q: And the GI50 [12]?
A: > 100 µM (inactive)

Q: And the GI50 [13]?
A: > 100 µM (inactive)

Q: What about the GI50 [14] of the same compound?
A: 19.5 µM (inactive)

Q: What about the GI50 [15] of the same compound?
A: > 100 µM (inactive)

Q: And the GI50 [16]?
A: > 100 µM (inactive)

Q: And the GI50 [17]?
A: > 100 µM (inactive)

Q: And the GI50 [18]?
A: > 100 µM (inactive)

Q: What about the GI50 [19] of the same compound?
A: > 100 µM (inactive)

Q: And the GI50 [20]?
A: > 100 µM (inactive)

Q: And the GI50 [21]?
A: > 100 µM (inactive)

Q: What about the GI50 [22] of the same compound?
A: > 100 µM (inactive)

Q: What about the GI50 [23] of the same compound?
A: > 100 µM (inactive)

Q: What about the GI50 [24] of the same compound?
A: > 100 µM (inactive)

Q: What about the GI50 [25] of the same compound?
A: > 100 µM (inactive)

Q: What about the GI50 [26] of the same compound?
A: > 100 µM (inactive)

Q: What about the GI50 [27] of the same compound?
A: > 100 µM (inactive)

Q: What about the GI50 [29] of the same compound?
A: > 100 µM (inactive)

Q: And the GI50 [30]?
A: > 100 µM (inactive)

Q: And the GI50 [31]?
A: > 100 µM (inactive)

Q: What about the GI50 [58] of the same compound?
A: > 100 µM (inactive)

Q: What about the GI50 [59] of the same compound?
A: > 100 µM (inactive)

Q: And the GI50 [33]?
A: > 100 µM (inactive)

Q: What about the GI50 [34] of the same compound?
A: > 100 µM

Q: What about the GI50 [35] of the same compound?
A: > 100 µM (inactive)

Q: What about the GI50 [36] of the same compound?
A: > 100 µM (inactive)

Q: And the GI50 [37]?
A: > 100 µM (inactive)

Q: And the GI50 [38]?
A: > 100 µM (inactive)

Q: What about the GI50 [39] of the same compound?
A: > 100 µM (inactive)

Q: What about the GI50 [40] of the same compound?
A: > 100 µM (inactive)

Q: And the GI50 [41]?
A: > 100 µM (inactive)

Q: And the GI50 [42]?
A: > 100 µM (inactive)

Q: And the GI50 [43]?
A: > 100 µM (inactive)

Q: What about the GI50 [44] of the same compound?
A: > 100 µM (inactive)

Q: What about the GI50 [45] of the same compound?
A: > 100 µM (inactive)

Q: What about the GI50 [46] of the same compound?
A: > 100 µM (inactive)

Q: What about the GI50 [47] of the same compound?
A: > 100 µM (inactive)

Q: And the GI50 [48]?
A: > 100 µM (inactive)

Q: And the GI50 [49]?
A: > 100 µM (inactive)

Q: And the GI50 [50]?
A: > 100 µM (inactive)

Q: And the GI50 [51]?
A: > 100 µM (inactive)

Q: What about the GI50 [52] of the same compound?
A: > 100 µM (inactive)

Q: And the GI50 [53]?
A: > 100 µM (inactive)

Q: What about the GI50 [54] of the same compound?
A: > 100 µM (inactive)

Q: And the GI50 [55]?
A: > 100 µM (inactive)

Q: With FC(F)(F)c1ccc2c(c1)nc(Cc1ccc(Cl)cc1)n2CC1CCCN2CCCCC12 (configuration not stated) as the compound, how does the GI50 [1] read?
A: 8.18 µM (inactive)

Q: And the GI50 [2]?
A: 1.59 µM (inactive)

Q: What about the GI50 [3] of the same compound?
A: 3.89 µM (inactive)

Q: What about the GI50 [56] of the same compound?
A: 12.6 µM (inactive)

Q: And the GI50 [57]?
A: 1.73 µM (inactive)

Q: And the GI50 [4]?
A: 7.67 µM (inactive)

Q: What about the GI50 [5] of the same compound?
A: 3.18 µM (inactive)

Q: And the GI50 [6]?
A: 11.5 µM (inactive)

Q: What about the GI50 [9] of the same compound?
A: 13.6 µM (inactive)

Q: And the GI50 [10]?
A: 14.1 µM (inactive)

Q: And the GI50 [11]?
A: 4.37 µM (inactive)

Q: What about the GI50 [12] of the same compound?
A: 2.07 µM (inactive)

Q: And the GI50 [13]?
A: 3.96 µM (inactive)

Q: What about the GI50 [14] of the same compound?
A: 11.9 µM (inactive)

Q: What about the GI50 [15] of the same compound?
A: 10 µM (inactive)

Q: What about the GI50 [16] of the same compound?
A: 7.66 µM (inactive)

Q: What about the GI50 [17] of the same compound?
A: 1.19 µM (inactive)

Q: What about the GI50 [18] of the same compound?
A: 3.27 µM (inactive)

Q: What about the GI50 [19] of the same compound?
A: 12.2 µM (inactive)

Q: What about the GI50 [21] of the same compound?
A: 12.5 µM (inactive)

Q: What about the GI50 [22] of the same compound?
A: 11.5 µM (inactive)

Q: What about the GI50 [23] of the same compound?
A: 6.61 µM (inactive)

Q: And the GI50 [24]?
A: 0.0194 µM (active)

Q: What about the GI50 [25] of the same compound?
A: 11.1 µM (inactive)

Q: What about the GI50 [26] of the same compound?
A: 6.27 µM (inactive)

Q: What about the GI50 [27] of the same compound?
A: 8.24 µM (inactive)

Q: What about the GI50 [29] of the same compound?
A: 10.2 µM (inactive)

Q: What about the GI50 [30] of the same compound?
A: 1.52 µM (inactive)

Q: What about the GI50 [31] of the same compound?
A: 2.92 µM (inactive)

Q: What about the GI50 [58] of the same compound?
A: 2.81 µM (inactive)

Q: What about the GI50 [32] of the same compound?
A: 3.8 µM (inactive)

Q: What about the GI50 [59] of the same compound?
A: 2.52 µM (inactive)

Q: What about the GI50 [33] of the same compound?
A: 14.2 µM (inactive)

Q: And the GI50 [34]?
A: 8.69 µM

Q: And the GI50 [35]?
A: 5.02 µM (inactive)

Q: And the GI50 [36]?
A: 2.23 µM (inactive)

Q: And the GI50 [37]?
A: 2.29 µM (inactive)

Q: What about the GI50 [38] of the same compound?
A: 4.18 µM (inactive)

Q: What about the GI50 [39] of the same compound?
A: 14.8 µM (inactive)

Q: What about the GI50 [40] of the same compound?
A: 8.65 µM (inactive)

Q: What about the GI50 [41] of the same compound?
A: 14 µM (inactive)

Q: What about the GI50 [42] of the same compound?
A: 10.5 µM (inactive)

Q: And the GI50 [43]?
A: 2.15 µM (inactive)

Q: What about the GI50 [44] of the same compound?
A: 6.35 µM (inactive)

Q: And the GI50 [45]?
A: 2.89 µM (inactive)

Q: What about the GI50 [46] of the same compound?
A: 2.11 µM (inactive)

Q: What about the GI50 [47] of the same compound?
A: 10.4 µM (inactive)

Q: And the GI50 [48]?
A: 9.79 µM (inactive)

Q: And the GI50 [49]?
A: 5.07 µM (inactive)

Q: What about the GI50 [50] of the same compound?
A: 10.3 µM (inactive)

Q: What about the GI50 [51] of the same compound?
A: 7.67 µM (inactive)

Q: And the GI50 [52]?
A: 13.2 µM (inactive)

Q: What about the GI50 [53] of the same compound?
A: 11.3 µM (inactive)

Q: And the GI50 [54]?
A: 12.2 µM (inactive)

Q: And the GI50 [55]?
A: 11.9 µM (inactive)
